Assay results from publication PMC7669867, “Synthesis and initial screening of lactate dehydrogenase inhibitor activity of 1,3-benzodioxole derivatives” (Scientific Reports, 2020).
Values joined by “and” are separate entries in the source; they are usually repeats but may differ in a detail not shown here. Equal entries are not always repeated. Where two headings read alike, the source gives them in different places.

How the values were obtained:
CYP1A2 = biological target: T1, CYP1A2 (Homo sapiens, UniProt P05177); assay: CYP isozymes activity assay, CYP1A2; type: in vitro ADME; conditions: pooled human liver microsomes, phenacetin; ketoconazole at 0.1 µM
T1 construct: Pooled Human liver microsomes (Sigma-Aldrich; 0.25 mg/mL); tissue Sigma-Aldrich; host or cells: pooled human liver microsomes
T1 sequence (P05177 1-516): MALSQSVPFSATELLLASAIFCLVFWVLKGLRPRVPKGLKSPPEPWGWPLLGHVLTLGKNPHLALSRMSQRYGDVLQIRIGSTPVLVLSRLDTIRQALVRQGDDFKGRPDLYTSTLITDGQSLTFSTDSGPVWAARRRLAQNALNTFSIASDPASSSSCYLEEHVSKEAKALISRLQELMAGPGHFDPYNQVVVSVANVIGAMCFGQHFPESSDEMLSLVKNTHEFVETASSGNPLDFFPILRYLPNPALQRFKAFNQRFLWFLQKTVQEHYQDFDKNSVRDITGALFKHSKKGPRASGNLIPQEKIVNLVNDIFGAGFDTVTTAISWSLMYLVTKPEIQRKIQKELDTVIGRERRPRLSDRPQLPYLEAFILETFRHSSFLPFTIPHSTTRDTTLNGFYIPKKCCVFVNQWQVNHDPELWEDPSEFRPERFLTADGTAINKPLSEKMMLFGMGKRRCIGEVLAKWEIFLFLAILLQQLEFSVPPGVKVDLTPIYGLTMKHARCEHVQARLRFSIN
Protocol: (§1) Pooled Human liver microsomes (Sigma-Aldrich; 0.25 mg/mL), 0.1 M phosphate buffer solution (pH 7.4), the five most commonly used substrate cocktails, such as 50 µM phenacetin (CYP1A2), 10 µM diclofenac […], 100 µM S-mephenytoin (CYP2C19) 5 µM dextromethorphan (CYP2D6), and 2.5 µM midazolam (CYP3A4), and compound 10 are pre-incubated at 37 °C for 5 min, then incubated with NADPH generation system solution for 15 min. To finish the enzymatic reaction, an acetonitrile solution (containing terfenadine) is added. The reaction tubes are centrifuged and the supernatant is withdrawn for analysis by LC–MS/MS.

CYP2C9 = biological target: T2, CYP2C9 (Homo sapiens, UniProt P11712); assay: CYP isozymes activity assay, CYP2C9; type: in vitro ADME; conditions: pooled human liver microsomes, diclofenac; ketoconazole at 0.1 µM
T2 construct: Pooled Human liver microsomes (Sigma-Aldrich; 0.25 mg/mL); tissue Sigma-Aldrich; host or cells: pooled human liver microsomes
Protocol: as §1

CYP2C19 = biological target: T3, CYP2C19 (Homo sapiens, UniProt P33261); assay: CYP isozymes activity assay, CYP2C19; type: in vitro ADME; conditions: pooled human liver microsomes, S-mephenytoin; ketoconazole at 0.1 µM
T3 construct: Pooled Human liver microsomes (Sigma-Aldrich; 0.25 mg/mL); tissue Sigma-Aldrich; host or cells: pooled human liver microsomes
Protocol: as §1

in vitro [1] = type: in vitro ADME, human; conditions: human, plasma
Protocol: (§2) Human and rat plasma (Sigma-Aldrich) are incubated at 37 °C with test compounds. During the incubation, aliquots are withdrawn at 0, 30, 120 min time points and acetonitrile solution (containing chlorpropamide) is added. After vortexing, the aliquots are centrifuged and the supernatant is withdrawn for analysis by LC–MS/MS.

in vitro [2] = type: in vitro ADME, rat; conditions: rat, plasma
Protocol: as §2

LDHA = conditions: cited from earlier work; for LDHA inhibitory activity: at concentrations up to 1 mM
[3] = biological target: T4, purified recombinant human LDHA protein (Homo sapiens, UniProt P00338); assay: In vitro LDHA inhibitor activity (NADH fluorescence decrease); type: biochemical; conditions: for LDHB/LDHA: ratio of LDHB IC50 to LDHA IC50 (selectivity)
T4 construct: purchased Abcam
Protocol: (§3) The in vitro evaluation of the LDHA inhibitor activities of the synthesized compounds was determined by the NADH intensity decrease through oxidation in a solution of HEPES-K^+, NADH, and pyruvate at a pH = 7.2. The NADH oxidation fluorescence intensity was measured using a spectrofluorometer at 340 nm excitation and 460 nm emission wavelengths, representing the NADH-specific fluorescence spectrum. Furthermore, the in vitro evaluation of the LDHB inhibitor activity was determined as a reverse reaction, which converts lactate to pyruvate by determining the amount of NAD^+ converted to NADH using the above-mentioned spectrophotometric experimental setting (Table 2). Based on this analysis, the half-maximal inhibitory concentration (IC50) of the synthesized compounds was obtained.
In vitro evaluation on LDHA inhibitor activity. LDHA activity assay was performed in accordance with previous studies[16],[18]. Briefly, the various concentrations of compounds were incubated with reaction buffer containing 20 mM HEPES-K^+, 20 μM NADH, 2 mM pyruvate, and 100 ng of purified recombinant human LDHA protein (Abcam, Cambridge, UK). The fluorescence of NADH, which has an excitation wavelength of 340 nm and an emission wavelength of 460 nm, was detected using a microplate spectrofluorometer (Spectramax M2; Molecular Devices, Sunnyvale, CA).

[4] = biological target: T5, purified recombinant human LDHB protein (Homo sapiens, UniProt P07195); assay: In vitro LDHB activity assay (NAD+ converted to NADH); type: biochemical
T5 construct: purchased Abcam
Protocol: as §3
In vitro analysis was determined the amount of NAD^+ converted to NADH[33]. The assay mixture composed of 100 mM Tris–HCl buffer (pH 8.0), 200 mM sodium L-lactate, 2.5 mM NAD^+, and 100 ng of purified recombinant human LDHB protein (Abcam). The fluorescence intensity of NADH was measured using a spectrofluorometer (Spectramax M2) at 340 nm as excitation wavelength and 460 nm as emission wavelength which is the specific fluorescence of NADH.

[5] = test system: human pancreatic cancer PANC-1 cells; assay: Cell viability MTT assay, PANC-1; type: cell-based; conditions: read-out: PANC-1 (GI50)
Protocol: (§4) The human pancreatic cancer cell lines, PANC-1 and MiaPaCa-2, human lung cancer A549 cells, human breast cancer MCF-7, and human glioma U87 cells were obtained from the Korean cell line bank (Seoul, Korea). The cells were cultured in Dulbecco’s Modified Eagle Medium (DMEM; ThermoFisher Scientific, Waltham, MA) supplemented with 10% fetal bovine serum (FBS; Sigma-Aldrich) and 1% penicillin/streptomycin (ThermoFisher Scientific). The cells were cultured at 37 °C in an atmosphere containing 5% CO2.
(§5) The potential cytotoxicity of compounds at different concentrations was evaluated using the MTT assay. Briefly, cancer cell lines were pre-incubated in 96-well plates with compounds for 48 h. Subsequently, MTT working solution (2 mg/mL in phosphate buffer solution) was added to each well and the plate was incubated for 4 h at 37 °C in an atmosphere containing 5% CO2. Then, the conditioned media were aspirated, and the formed formazan crystals in living cells were quantified using the microplate reader (Spectramax M2) at 540 nm. The concentrations that produce 50% cell growth inhibition (GI50) were calculated by curves constructed by the plot of cell survival by an assistant of PRISM software (GraphPad, San Diego, CA).

[6] = test system: human lung cancer A549 cells; assay: Cell viability MTT assay, A549; type: cell-based; conditions: read-out: A549 (GI50)
Protocol: as §4, §5

[7] = test system: human breast cancer MCF-7; assay: Cell viability MTT assay, MCF-7; type: cell-based; conditions: read-out: MCF-7 (GI50)
Protocol: as §4, §5

[8] = test system: human pancreatic cancer MiaPaCa-2 cells; assay: Cell viability MTT assay, MiaPaCa-2; type: cell-based; conditions: read-out: MiaPaCa-2 (GI50)
Protocol: as §4, §5

human glioma U87 cells = assay: Cell viability MTT assay, U87; type: cell-based; conditions: U-87 MG, 48 h, read-out: U87 (GI50)
Protocol: as §4, §5

several cancer cells = assay: Cell viability MTT assay, several cancer cells; type: cell-based; conditions: Homo sapiens, cell line not given, read-out: concentration of half-maximal growth inhibition (GI50)
Protocol: To assess the anticancer potency of these compounds in several cancer cells, we determined the cell toxicities of these compounds using an MTT assay. […] On the other hand, compound 10 has higher cytotoxicity compared to other compounds in various cancer cell lines. […] There is a small difference between standard compounds and compound 10 in growth inhibition of PANC-1 cells.
as §5

[9] = synthesized compounds, read-out: LDHA IC50
[10] = synthesized compounds, read-out: LDHB IC50
[11] = Homo sapiens, PANC-1, MTT, 48 h

T5 sequence (P07195 whole entry): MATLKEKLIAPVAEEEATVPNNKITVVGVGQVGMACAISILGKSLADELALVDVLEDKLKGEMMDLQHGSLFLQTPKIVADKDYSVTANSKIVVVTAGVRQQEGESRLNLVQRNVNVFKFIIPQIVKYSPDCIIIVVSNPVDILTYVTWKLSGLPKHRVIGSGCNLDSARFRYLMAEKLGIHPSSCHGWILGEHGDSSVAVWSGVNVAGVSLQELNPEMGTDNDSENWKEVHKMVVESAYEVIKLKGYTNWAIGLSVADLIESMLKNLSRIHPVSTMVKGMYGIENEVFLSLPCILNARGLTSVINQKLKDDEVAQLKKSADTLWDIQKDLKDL
T3 sequence (P33261 whole entry): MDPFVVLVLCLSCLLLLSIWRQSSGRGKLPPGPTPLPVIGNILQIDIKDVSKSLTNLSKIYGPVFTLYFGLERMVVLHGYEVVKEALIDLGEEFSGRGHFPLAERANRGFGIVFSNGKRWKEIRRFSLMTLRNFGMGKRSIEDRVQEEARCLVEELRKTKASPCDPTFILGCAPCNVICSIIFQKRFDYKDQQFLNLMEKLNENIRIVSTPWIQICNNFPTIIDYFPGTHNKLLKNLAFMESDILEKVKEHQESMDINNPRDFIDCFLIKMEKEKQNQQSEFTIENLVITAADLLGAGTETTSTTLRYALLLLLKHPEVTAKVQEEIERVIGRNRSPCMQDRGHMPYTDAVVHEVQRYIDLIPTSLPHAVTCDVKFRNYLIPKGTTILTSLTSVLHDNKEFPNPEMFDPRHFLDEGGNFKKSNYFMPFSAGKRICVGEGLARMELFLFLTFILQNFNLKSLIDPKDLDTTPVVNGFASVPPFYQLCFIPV
T2 sequence (P11712 whole entry): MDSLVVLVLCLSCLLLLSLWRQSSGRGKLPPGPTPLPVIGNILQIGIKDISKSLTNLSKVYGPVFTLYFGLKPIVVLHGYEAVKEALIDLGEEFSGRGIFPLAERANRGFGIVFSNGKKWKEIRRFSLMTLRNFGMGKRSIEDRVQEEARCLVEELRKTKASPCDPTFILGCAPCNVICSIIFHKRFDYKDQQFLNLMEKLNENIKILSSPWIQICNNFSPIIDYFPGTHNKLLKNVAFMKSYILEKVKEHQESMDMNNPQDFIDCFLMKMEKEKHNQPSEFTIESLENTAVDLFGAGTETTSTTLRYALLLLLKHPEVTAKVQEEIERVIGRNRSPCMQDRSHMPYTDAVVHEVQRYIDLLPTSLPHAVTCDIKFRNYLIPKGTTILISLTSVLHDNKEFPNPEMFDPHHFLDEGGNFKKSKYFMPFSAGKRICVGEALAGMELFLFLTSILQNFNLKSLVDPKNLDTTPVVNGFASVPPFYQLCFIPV

Molecule | IC50 [3, 9] | IC50 [4, 10] | GI50 [5, 11] | GI50 ([6]; A549, MTT, 48 h) | GI50 ([7]; MCF7, MTT, 48 h) | GI50 ([8]; MIA PaCa-2, MTT, 48 h) | GI50 (human glioma U87 cells; MTT) | also measured
CC(=O)N1CCN(c2ccc(OCC3COC(Cn4ccnc4)(c4ccc(Cl)cc4Cl)O3)cc2)CC1 (stereo not drawn) [Ketoconazole, reference compound] |  |  |  |  |  |  |  | CYP1A2 isozyme activity (% of control activity) (CYP1A2): 99.1 % of control activity; CYP2C9 isozyme activity (% of control activity) (CYP2C9): 97.5 % of control activity; CYP2C19 isozyme activity (% of control activity) (CYP2C19): > 100 % of control activity
CCN(CC)CCOC(=O)c1ccc(N)cc1 [Procaine] |  |  |  |  |  |  |  | remaining at 5 min (in vitro [1]): 1.5%; remaining at 10 min (in vitro [1]): 0.4%; remaining at 0.5 h (in vitro [2]): 89.8%; remaining at 2 h (in vitro [2]): 52.6%
CCOC(=O)[C@H](CCc1ccccc1)N[C@@H](C)C(=O)N1CCC[C@H]1C(=O)O [Enalapril] |  |  |  |  |  |  |  | remaining at 0.5 h (in vitro [1]): 95%; remaining at 2 h (in vitro [1]): 93.7%; remaining at 0.5 h (in vitro [2]): 37.7%; remaining at 2 h (in vitro [2]): 1.8%
C[C@H](Cc1ccc2c(c1)OCO2)[C@@H](C)Cc1ccc2c(c1)OCO2 [Machilin A] |  |  |  |  |  |  |  | IC50 (LDHA): 84 µM
Nc1cccc(C(=O)OCc2ccc3c(c2)OCO3)c1 [Compound 4] | 182 µM | 7.87 µM | 203 µM | > 1000 µM | 729 µM | > 1000 µM | 380 µM | LDHB/LDHA [3]: 0.043
c1ccc2c(c1)OCO2 [1,3-benzodioxole] |  |  |  |  |  |  |  | LDHA inhibitory activity (LDHA): did not exhibit an LDHA inhibitory activity
GNE140 [reference compound] |  |  |  |  |  |  |  | GI50 ([5]; MTT, 48 h): 11.6 µM and 11.9 µM
O=C(OCc1ccc2c(c1)OCO2)c1ccc(C(F)(F)F)cc1 [Compound 2] | 13.6 µM | 395 µM | > 1000 µM | > 1000 µM | > 1000 µM | > 1000 µM | > 1000 µM | LDHB/LDHA [3]: 29.00; GI50 (several cancer cells): > 1000 µM
O=C(OCc1ccc2c(c1)OCO2)c1ccccc1 [Compound 7] | 843 µM | > 1000 µM | 243 µM | > 1000 µM | > 1000 µM | > 1000 µM | > 1000 µM | LDHB/LDHA [3]: > 1.18
Cc1ccc(C(=O)OCc2ccc3c(c2)OCO3)cc1 [Compound 8] | > 1000 µM | 248 µM | 86.5 µM | > 1000 µM | > 1000 µM | > 1000 µM | > 1000 µM | 
COc1ncc(-c2ccc3c(Nc4cc(Oc5cc(F)cc(F)c5)cc(C(=O)O)c4)c(S(=O)(=O)NC4CC4)cnc3c2)c(OC)n1 [GSK2837808A, reference compound] |  |  |  |  |  |  |  | GI50 ([5]; MTT, 48 h): 11.3 µM
OCc1ccc2c(c1)OCO2 [piperonyl alcohol] |  |  |  |  |  |  |  | LDHA inhibitory activity (LDHA): did not exhibit an LDHA inhibitory activity
O=C(CC(F)(F)F)OCc1ccc2c(c1)OCO2 [Compound 6] | 452 µM | 130 µM | > 1000 µM | > 1000 µM | > 1000 µM | > 1000 µM | > 1000 µM | LDHB/LDHA [3]: 0.29
O=C(OCc1ccc2c(c1)OCO2)c1ccc([Se]c2ccccc2)cc1 [Compound 9] |  |  |  |  |  |  |  | IC50 [3]: > 1000 µM; IC50 ([4]; LDHB IC50, synthesized compounds): 1000 µM and 151 µM; GI50 ([5]; Homo sapiens, PANC-1, 48 h): 21.1 µM; GI50 ([6]; A549, 48 h): 925 µM; GI50 ([7]; MCF7, 48 h): 455 µM; GI50 ([8]; MIA PaCa-2, 48 h): 108 µM; GI50 (human glioma U87 cells): > 1000 µM
O=C(OCc1ccc2c(c1)OCO2)c1ccc(F)cc1 [Compound 5] | 478 µM | > 1000 µM | 644 µM | > 1000 µM | > 1000 µM | > 1000 µM | > 1000 µM | 
O=C(OCc1ccc2c(c1)OCO2)c1ccc(I)cc1 [Compound 3] | > 1000 µM | 151 µM | 269 µM | > 1000 µM | > 1000 µM | > 1000 µM | > 1000 µM | 
O=C(OCc1ccc2c(c1)OCO2)c1ccc(Br)cc1 [Compound 1] | > 1000 µM | 79 µM | > 1000 µM | > 1000 µM | > 1000 µM | > 1000 µM | > 1000 µM | 
